Laboratory results taken from US10280447B2, “Substituted imidazo[1,2-A]pyrazines tethered to energy acceptors” (PROMEGA CORPORATION, priority 2016, dated 2019).

Tested on: NanoLuc® enzyme and NanoLuc-Halotag fusion protein enzyme
Experiment: Spectral profile of the coelenterazine analogue/luciferase reaction (Tecan-M1000, 3 nm increments)
Format: biochemical, Oplophorus gracilirostris
Settings: NanoGlo® buffer
Protocol: FIGS. 2A-2D show the spectral profiles of varying concentrations of TAK-0043 and enzyme in NanoGlo® buffer. […] TAK-0043 was tested as a potential coelenterazine analogue capable of shifting the emission spectrum in a coelenterazine/luciferase reaction. A dilution series of purified NanoLuc® enzyme (Promega E499a) and NanoLuc-Halotag fusion protein enzyme was prepared in OptiMEM+0.1% FBS starting 2 μM. 50 ul of the 2 μM enzyme dilutions were combined with 50 μl of 2 μM and 20 μM TAK-0043 in NanoGlo® buffer in triplicate. These samples were immediately read on the Tecan-M1000 using 3 nm increments to obtain spectral profiles. Another spectral measurement was completed by combining 50 μl of 6.6 μM NanoLuc® enzyme and NanoLuc-Halotag fusion protein enzyme in OptiMEM+0.1% FBS with 50 μl of 2 μM TAK-0043 in NanoGlo® buffer in triplicate. This sample was also read on the Tecan M-1000 using […] increments.

For `O=C(NCCCCCCOc1cccc(Cc2nc3c(Cc4ccccc4)[nH]c(-c4ccccc4)cn-3c2=O)c1)c1ccc(C(=O)O)c(C2=c3cc4c5c(c3Oc3c2cc2c6c3CCCN6CCCC2)CCC[N+]=5CCCC4)c1` [TAK-0043], the “peak for coelenterazine emission at 460 nm” value (TAK-0043 with NanoLuc® and NanoLuc-HaloTag fusion enzyme) was “nearly invisible”, the “emitted photons shifted to NCT dye emission” value (all concentrations of TAK-0043 (1 or 10 uM) and enzyme (1 or 3.3 uM) used) was > 95% and the emission maximum (all concentrations of TAK-0043 and enzyme used) was 618 nm.
